From article PMC11772769, “Selective cargo and membrane recognition by SNX17 regulates its interaction with Retriever” (EMBO Reports, 2024) come the findings set out here.

Residue numbers refer to the chain shown, from its start. Where two headings read alike, the source gives them in different places. Where no end group is shown, it is not given here.

By Kd is commonly meant a measure of binding affinity in units of concentration.

In test [1] the target is T1, VPS26C (Homo sapiens, UniProt O14972).
T1 construct: His-Sumo3 (N, cleaved yes); made in house; host or cells: Escherichia coli BL21(DE3)
Put plainly: Fluorescence anisotropy binding of 5-FAM SNX17CT-18 to VPS26C. The following applies: 0.1 μM 5-FAM peptide, pH 7.5, 300 mM NaCl, 25 °C, two technical replicates (Fig. 3D). As for the experimental part:
(§1) Lyophilized peptides were resuspended in 100 mM Hepes pH 8.0 at 5 mg/ml and further diluted in the assay buffer (50 mM Hepes pH 7.5, 300 mM NaCl, and 1 mM DTT). […] The mixture was incubated at 25 °C for at least 30 min and then transferred to 96 Flat Black plates. Fluorescence anisotropy was measured at 25 °C using Spark 10M Plate Reader (Tecan) with a 485/20 excitation filter and a 535/35 emission filter. The dissociation constants were calculated in GraphPad Prism by nonlinear regression fitting of the experimental data to a one-site total binding model. The final KD measurement is the mean of at least two independent experiments.
For orientation: Polarisation of emitted light reports the rotation of a fluorescent probe.

The target in test [2] is T2, VPS29 (Homo sapiens, UniProt Q9UBQ0).
T2 construct: GST (N, cleaved yes); made in house; host or cells: Escherichia coli BL21(DE3)
Put plainly: Fluorescence anisotropy binding of 5-FAM SNX17CT-18 to VPS29. The following applies: 0.1 μM 5-FAM peptide, pH 7.5, 300 mM NaCl, 25 °C, two technical replicates (Fig. 3D). As for the experimental part: as §1

Test [3] concerns the target T3, MBP-SNX17 WT (Homo sapiens, UniProt Q15036).
T3 construct: M protein marker, R Retriever complex, FL full-length; His (N, cleaved yes); made in house; host or cells: Escherichia coli BL21(DE3)
T3 sequence (Q15036 1-470): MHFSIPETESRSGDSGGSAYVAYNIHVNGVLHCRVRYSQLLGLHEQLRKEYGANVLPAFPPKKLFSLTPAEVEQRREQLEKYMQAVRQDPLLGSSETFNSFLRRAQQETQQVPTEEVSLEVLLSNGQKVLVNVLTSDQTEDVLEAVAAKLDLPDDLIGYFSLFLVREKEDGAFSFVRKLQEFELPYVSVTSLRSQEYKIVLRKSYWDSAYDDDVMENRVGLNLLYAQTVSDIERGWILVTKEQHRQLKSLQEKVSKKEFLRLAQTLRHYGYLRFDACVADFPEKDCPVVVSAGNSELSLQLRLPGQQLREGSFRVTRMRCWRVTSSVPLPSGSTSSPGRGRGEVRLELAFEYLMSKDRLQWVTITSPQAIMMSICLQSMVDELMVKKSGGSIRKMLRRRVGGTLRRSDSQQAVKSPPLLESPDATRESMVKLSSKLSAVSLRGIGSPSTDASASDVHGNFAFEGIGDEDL
Put plainly: Fluorescence anisotropy binding of 5-FAM peptides to MBP-SNX17 wild-type. The method, then: as §1

The target of test [4] is T4, VPS35L-VPS29 (Homo sapiens, UniProt Q7Z3J2+Q9UBQ0).
T4 construct: His (N, cleaved yes); made in house; host or cells: High Five insect cells (baculovirus)
Put plainly: Fluorescence anisotropy binding of 5-FAM SNX17CT-18 to VPS35L-VPS29. The following applies: 0.1 μM 5-FAM peptide, pH 7.5, 300 mM NaCl, 25 °C, two technical replicates (Fig. 3D). As for the experimental part:
as §1

The target in test [5] is T5, MBP-SNX17W321A (Homo sapiens, UniProt Q15036, W321A).
T5 construct: M protein marker, R Retriever complex, FL full-length; His (N, cleaved yes); made in house; host or cells: Escherichia coli BL21(DE3)
T5 sequence (Q15036 1-470 W321A): T3 sequence (Q15036 1-470) with W321A
Put plainly: Fluorescence anisotropy binding of 5-FAM peptides to MBP-SNX17 W321A. The method, then:
as §1

The target in test [6] is T6, MBP-SNX17 L470G (Homo sapiens, UniProt Q15036, L470G).
T6 construct: M protein marker, R Retriever complex, FL full-length; His (N, cleaved yes); made in house; host or cells: Escherichia coli BL21(DE3)
T6 sequence (Q15036 1-470 L470G): T3 sequence (Q15036 1-470) with L470G
Put plainly: Fluorescence anisotropy binding of 5-FAM cargo peptides to MBP-SNX17 L470G. The method, then:
as §1, with “The peptides used for binding assays were synthesized with an N-terminal 5-Carboxyfluorescein (FAM) and HPLC purified (≥95%) by GenScript. Lyophilized” for “Lyophilized”

Test [7] addresses T7, SNX17FERM-CT (amino acids 109-470) (Homo sapiens, UniProt Q15036).
T7 construct: His-Sumo3 (N, cleaved yes); made in house; host or cells: Escherichia coli BL21(DE3)
T7 sequence (Q15036 109-470): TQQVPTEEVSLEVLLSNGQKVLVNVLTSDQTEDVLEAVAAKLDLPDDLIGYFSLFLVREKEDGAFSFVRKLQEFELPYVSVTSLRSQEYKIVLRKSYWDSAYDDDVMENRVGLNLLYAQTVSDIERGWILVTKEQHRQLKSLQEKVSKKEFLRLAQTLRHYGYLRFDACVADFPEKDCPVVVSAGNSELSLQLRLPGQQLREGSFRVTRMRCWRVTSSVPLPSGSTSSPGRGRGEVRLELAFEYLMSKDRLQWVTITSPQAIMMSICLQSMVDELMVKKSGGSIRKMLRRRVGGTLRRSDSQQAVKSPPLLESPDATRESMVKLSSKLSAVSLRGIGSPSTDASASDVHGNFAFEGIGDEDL
Put plainly: Fluorescence anisotropy binding of 5-FAM cargo peptides to SNX17FERM-CT. The following applies: read-out: KD SNX17FERM-CT. The method, then: as §1

In test [8] the target is MBP (Escherichia coli, UniProt P0AEX9). Put plainly: Fluorescence anisotropy, MBP negative control. It counts as binding. As for the experimental part:
as §1

The target of test [9] is T8, MBP-SNX17V380D (Homo sapiens, UniProt Q15036, V380D).
T8 construct: M protein marker, R Retriever complex, FL full-length; His (N, cleaved yes); made in house; host or cells: Escherichia coli BL21(DE3)
T8 sequence (Q15036 1-470 V380D): T3 sequence (Q15036 1-470) with V380D
Put plainly: Fluorescence anisotropy binding of 5-FAM peptides to MBP-SNX17 V380D. As for the experimental part:
as §1

As for `CC[C@H](C)[C@H](NC(=O)CNC(=O)[C@H](CCC(=O)O)NC(=O)[C@H](Cc1ccccc1)NC(=O)[C@H](C)NC(=O)[C@H](Cc1ccccc1)NC(=O)[C@H](CC(N)=O)NC(=O)CNC(=O)[C@H](Cc1c[nH]cn1)NC(=O)[C@@H](NC(=O)[C@H](CC(=O)O)NC(=O)[C@H](CO)NC(=O)[C@H](C)NC(=O)c1ccc2c(c1)C(=O)OC21c2ccc(O)cc2Oc2cc(O)ccc21)C(C)C)C(=O)NCC(=O)N[C@@H](CC(=O)O)C(=O)N[C@@H](CCC(=O)O)C(=O)N[C@@H](CC(=O)O)C(=O)N[C@@H](CC(C)C)C(=O)O` [SNX17CT-18], the “KD VPS26C” value in [1] is “no discernible binding”. Moreover, the “KD VPS29” value in test [2] is recorded as “no discernible binding”. In addition, in test [3] (fluorescence anisotropy, 0.1 μM 5-FAM peptide, pH 7.5, 300 mM NaCl, 25 °C, one-site total binding, Bmax fixed at 240, mean ± SD of three biological replicates (Fig. 4E)), the “KD MBP-SNX17 WT” value is given as “binds weakly”. For the same compound, the “KD VPS35L-VPS29” value in [4] is given as “weak interaction”.
For the compound MNVEIGNPTYKMYE [LRP1 14-mer], the Kd was greater than 32 µM in test [5]; greater than 32 µM in test [5] (read-out: KD MBP-SNX17W321A, fluorescence anisotropy, 5-FAM peptide, Bmax fixed at 240, replicate Y2 (Fig. 4E source data)); 2.8 ± 0.2 µM in test [6]; 2.23 µM in [7]; 3 µM in test [3]; greater than 32 µM in test [8] (0.1 μM 5-FAM peptide, pH 7.5, 300 mM NaCl, 25 °C (Fig. EV3B), read-out: KD MBP (negative control)). For the same compound, the Kd in test [8] (5-FAM peptide, replicate Y1 (Fig. 4E source data), read-out: KD MBP) is greater than 32 µM; in test [8] (5-FAM peptide, replicate Y2 (Fig. 4E source data), read-out: KD MBP) it was greater than 32 µM; in [8] (5-FAM peptide, replicate Y3 (Fig. 4E source data), read-out: KD MBP), greater than 32 µM; in test [9] (0.1 μM 5-FAM peptide, pH 7.5, 300 mM NaCl, 25 °C, one-site total binding, Bmax fixed at 240, three biological replicates (Fig. 4E)), greater than 32 µM; in test [9] (5-FAM peptide, Bmax fixed at 240, replicate Y1 (Fig. 4E source data), read-out: KD MBP-SNX17V380D), greater than 32 µM; in test [9] (5-FAM peptide, Bmax fixed at 240, replicate Y2 (Fig. 4E source data), read-out: KD MBP-SNX17V380D), greater than 32 µM. Moreover, the Kd in test [9] (5-FAM peptide, Bmax fixed at 240, replicate Y3 (Fig. 4E source data), read-out: KD MBP-SNX17V380D) is greater than 32 µM.
